Several values for one entry are separate records, joined by “and”; a condition that tells them apart may be missing. Identical values can stand only once.
What was measured:
Tca-Pgp-11.1 = biological target: T1, Tca-Pgp-11.1 (Toxocara canis, UniProt A0A891XKB7); assay: H33342 efflux inhibition assay; assay type: cell-based
T1 sequence (A0A891XKB7 1-1282): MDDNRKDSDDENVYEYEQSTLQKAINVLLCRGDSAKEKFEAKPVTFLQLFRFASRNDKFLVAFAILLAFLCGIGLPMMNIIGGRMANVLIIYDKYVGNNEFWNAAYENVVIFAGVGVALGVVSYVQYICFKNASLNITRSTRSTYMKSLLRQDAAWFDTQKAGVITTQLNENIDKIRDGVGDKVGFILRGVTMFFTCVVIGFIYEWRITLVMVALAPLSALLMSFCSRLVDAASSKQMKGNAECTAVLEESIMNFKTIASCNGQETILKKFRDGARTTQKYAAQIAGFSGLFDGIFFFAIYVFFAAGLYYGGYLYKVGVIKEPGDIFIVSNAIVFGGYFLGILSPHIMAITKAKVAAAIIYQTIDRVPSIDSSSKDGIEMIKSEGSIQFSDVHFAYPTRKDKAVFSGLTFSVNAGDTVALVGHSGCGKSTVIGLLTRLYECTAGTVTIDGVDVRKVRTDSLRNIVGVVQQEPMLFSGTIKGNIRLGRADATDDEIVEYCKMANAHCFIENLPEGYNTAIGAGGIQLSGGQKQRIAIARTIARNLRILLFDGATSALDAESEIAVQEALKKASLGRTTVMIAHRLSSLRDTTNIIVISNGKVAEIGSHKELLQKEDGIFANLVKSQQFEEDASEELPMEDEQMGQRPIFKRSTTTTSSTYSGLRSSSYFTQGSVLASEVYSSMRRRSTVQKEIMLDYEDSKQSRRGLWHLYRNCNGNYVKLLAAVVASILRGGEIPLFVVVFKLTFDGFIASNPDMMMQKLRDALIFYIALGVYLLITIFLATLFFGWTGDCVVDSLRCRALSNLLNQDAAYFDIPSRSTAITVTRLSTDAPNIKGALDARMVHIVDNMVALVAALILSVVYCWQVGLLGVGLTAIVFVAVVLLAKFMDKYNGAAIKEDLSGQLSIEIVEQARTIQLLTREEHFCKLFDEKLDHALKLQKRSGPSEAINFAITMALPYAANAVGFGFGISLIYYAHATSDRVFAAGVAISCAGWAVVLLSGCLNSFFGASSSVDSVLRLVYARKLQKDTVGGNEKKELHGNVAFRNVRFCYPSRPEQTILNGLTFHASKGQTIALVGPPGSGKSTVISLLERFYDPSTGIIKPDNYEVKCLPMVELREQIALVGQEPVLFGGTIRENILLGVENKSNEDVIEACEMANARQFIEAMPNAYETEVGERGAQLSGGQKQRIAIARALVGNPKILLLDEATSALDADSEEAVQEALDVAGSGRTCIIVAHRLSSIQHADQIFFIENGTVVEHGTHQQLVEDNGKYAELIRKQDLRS

[1] = tested on: non-transfected LLC-PK1 cells; assay type: cell-based, pig; settings: possibly P-gp-independent mechanism

SMILES: C/C=C/C[C@@H](C)C(=O)[C@H]1C(=O)N[C@@H](C(C)C)C(=O)N(C)CC(=O)N(C)[C@@H](CC(C)C)C(=O)N[C@@H](C(C)C)C(=O)N(C)[C@@H](CC(C)C)C(=O)N[C@@H](C)C(=O)N[C@H](C)C(=O)N(C)[C@@H](CC(C)C)C(=O)N(C)[C@@H](CC(C)C)C(=O)N(C)[C@@H](C(C)C)C(=O)N1C [Valspodar, valspodar]
- IC50 (Tca-Pgp-11.1): 3.01 µM

SMILES: CO[C@H]1C[C@H](O[C@@H]2/C(C)=C/C[C@@H]3C[C@@H](C[C@]4(CC[C@H](C)[C@@H](C5CCCCC5)O4)O3)OC(=O)[C@@H]3C=C(C)/C(=N/O)[C@H]4OC/C(=C\C=C\[C@@H]2C)[C@]43O)O[C@@H](C)[C@@H]1O [Selamectin, selamectin]
- IC50 (Tca-Pgp-11.1): 1020 µM

SMILES: COc1cc2c(cc1OC)CN(CCc1ccc(NC(=O)c3cc(OC)c(OC)cc3NC(=O)c3cnc4ccccc4c3)cc1)CC2 [Tariquidar, tariquidar]
- IC50 (Tca-Pgp-11.1): 68 µM and 68.5 µM

SMILES: COC(=O)[C@H]1[C@H]2C[C@@H]3c4[nH]c5cc(OC)ccc5c4CCN3C[C@H]2C[C@@H](OC(=O)c2cc(OC)c(OC)c(OC)c2)[C@@H]1OC [reserpine]
- Effect on release of H33342 from non-transfected cells [1]: enhanced release of H33342 from non-transfected cells

SMILES: C=CC[C@@H]1/C=C(\C)C[C@H](C)C[C@H](OC)[C@H]2O[C@@](O)(C(=O)C(=O)N3CCCC[C@H]3C(=O)O[C@H](/C(C)=C/[C@@H]3CC[C@@H](O)[C@H](OC)C3)[C@H](C)[C@@H](O)CC1=O)[C@H](C)C[C@@H]2OC [tacrolimus]
- Effect on release of H33342 from non-transfected cells [1]: enhanced release of H33342 from non-transfected cells
